Source: patent publication US10457662B2, “Substituted amides for treating and preventing cancer” (The Regents of the University of Michigan, priority 2015, dated 2019)
Read-outs that look alike come from different tables or passages of the source.

Assays:
MiaPaCa-2 = assay: MTT assay, MiaPaCa-2; settings: Homo sapiens
Method: Cells were treated with QN523 for 1, 4, 8, 24, 48, 72 h and left in culture in fresh media. MTT assay was performed 72 h after initiation of treatment. Data points represent Mean±SD from three independent experiments.
(§1) Experiments conducted during the course of developing embodiments for the present invention involved performance of a phenotypic screen of a library of 20,000 small-molecules representing five million compounds. […] Subsequently, a lead optimization campaign was performed to synthesize a series of close analogs. Initially, the 50 analogs were tested in three pancreatic cancer cell lines using MTT assay (Table 1).
(§2) For in vitro studies, compounds were dissolved in DMSO at 10 mM as stock solutions and stored at −20° C. For in vivo studies, QN523 was dissolved in a vehicle containing 5% DMSO, 35% propylene glycol and 60% saline, and administered at 100 uL through intraperitoneal injections.

BxPC-3 = assay: MTT assay, BxPC-3; format: cell-based; settings: Homo sapiens
Method: as §1, §2

Panc-1 = assay: MTT assay, Panc-1; format: cell-based; settings: Homo sapiens
Method: as §1, §2

[1] = test system: three pancreatic cancer cell lines; assay: MTT assay, three pancreatic cancer cell lines; format: cell-based; settings: read-out: Mark: IC50 lower than 1 μM in at least one cell line, Table 1
[2] = MIA PaCa-2, read-out: IC50 Values MiaPaCa-2
[3] = BXPC-3, MTT assay, Mean ± SD, three independent experiments, read-out: IC50 Values BxPC-3
[4] = PANC-1, MTT assay, Mean ± SD, three independent experiments, read-out: IC50 Values Panc-1
[5] = MIA PaCa-2, read-out: IC50 Values MiaPaCa-2, MTT assay, Mean ± SD, three independent experiments
[6] = BXPC-3, read-out: IC50 Values BxPC-3
[7] = PANC-1, read-out: IC50 Values Panc-1

IC50 (MiaPaCa-2; [2]) [µM]	IC50 (BxPC-3; [3]) [µM]	IC50 (Panc-1; [4]) [µM]	IC50 [1] [µM]	Compound	IC50 (MiaPaCa-2; [5]) [µM]	IC50 (BxPC-3; [6]) [µM]	IC50 (Panc-1; [7]) [µM]	IC50 (MiaPaCa-2; MIA PaCa-2, read-out: IC50 in MiaPaCa-2, comparison compounds) [µM]
> 10	> 10	> 10	–	Cc1ccc2cccc(NC(=O)c3cnccn3)c2n1 [QN634, Pyrazine-2-carboxylic acid (2-methylquinolin-8-yl)amide]	–	–	–	–
0.11 ± 0.07	0.05 ± 0.02	0.2 ± 0.1	–	Nc1ccn([C@@H]2O[C@H](CO)[C@@H](O)C2(F)F)c(=O)n1 [Gemcitabine, reference compound]	–	–	–	–
> 10	> 10	> 10	–	NCCOc1cc(NC(=O)c2cnccn2)c2ncccc2c1 [QN154, Pyrazine-2-carboxylic acid [6-(2-aminoethoxy)quinolin-8-yl]amide]	–	–	–	–
–	–	–	–	O=C(Nc1cccc2cccnc12)c1cnc(Cl)cn1 [QN573, 5-Chloropyrazine-2-carboxylic acid quinolin-8-ylamide]	7 ± 1.3	> 10	9.3 ± 0.8	–
–	–	–	–	O=C(Nc1cccc2cccnc12)c1ccc(F)nc1 [QN532, 6-Fluoro-N-quinolin-8-yl-nicotinamide]	> 10	> 10	> 10	–
–	–	–	–	O=C(Nc1cccc2cccnc12)c1ccc(Br)cn1 [QN529, 5-Bromopyridine-2-carboxylic acid quinolin-8-ylamide]	1.83 ± 0.72	> 10	4 ± 0.8	–
> 10	> 10	> 10	–	COc1cc(/C=C(\C#N)C(=O)Nc2cccc3cccnc23)cc(OC)c1OC [QN610]	–	–	–	–
> 10	> 10	> 10	–	CN(C)Cc1ccc2cccc(NC(=O)c3cnccn3)c2n1 [QN659, Pyrazine-2-carboxylic acid (2-dimethylaminomethyl-quinolin-8-yl)amide]	–	–	–	–
0.27 ± 0.15	6.7 ± 0.6	0.83 ± 0.21	< 1	COc1cc(NC(=O)c2cnc(C)cn2)c2ncccc2c1 [QN663, 5-Methylpyrazine-2-carboxylic acid (6-methoxyquinolin-8-yl)amide]	–	–	–	–
–	–	–	–	O=C(Nc1cccc2cccnc12)c1cccc(Br)n1 [QN530, 6-Bromopyridine-2-carboxylic acid quinolin-8-ylamide]	> 10	> 10	> 10	–
> 10	> 10	> 10	–	Cc1cnc(C(=O)Nc2cccc3ncccc23)cn1 [QN521, 5-Methylpyrazine-2-carboxylic acid quinolin-5-ylamide]	–	–	–	–
2.83 ± 0.76	> 10	2.7 ± 0.52	–	O=C(Nc1cc(Cl)cc2cccnc12)c1cnccn1 [QN792, N-(6-Chloroquinolin-8-yl)pyrazine-2-carboxamide]	–	–	–	–
> 10	> 10	> 10	–	O=C(Nc1cc(OCCC2CCNCC2)cc2cccnc12)c1cnccn1 [QN163, Pyrazine-2-carboxylic acid [6-(2-piperidin-4-yl-ethoxy)quinolin-8-yl]amide]	–	–	–	–
0.13 ± 0.06	> 10	0.67 ± 0.25	< 1	O=C(Nc1cc(F)cc2cccnc12)c1cnccn1 [QN651, Pyrazine-2-carboxylic acid (6-fluoro-quinolin-8-yl)amide]	–	–	–	–
2.23 ± 0.31	> 10	6.83 ± 1.73	–	Cc1cnc(C(=O)Nc2ccc(Br)c3cccnc23)cn1 [QN571, 5-Methylpyrazine-2-carboxylic acid (5-bromoquinolin-8-yl)amide]	–	–	–	–
9 ± 1.73	9.33 ± 1.15	9.67 ± 0.58	–	Cc1cnc(C(=O)Nc2cc(OCCC3CCN(C(=O)OC(C)(C)C)CC3)cc3cccnc23)cn1 [QN160]	–	–	–	–
> 10	> 10	> 10	–	CN(C)CCOc1cc(NC(=O)c2cnccn2)c2ncccc2c1 [QN147, Pyrazine-2-carboxylic acid [6-(2-dimethylamino-ethoxy)-quinolin-8-yl]-amide]	–	–	–	–
1.3 ± 0.35	> 10	9 ± 1.41	–	COc1cc(NC(=O)c2ncccn2)c2ncccc2c1 [QN113]	–	–	–	–
> 10	> 10	> 10	–	CC(C)(C)OC(=O)N1CCC(CCOc2cc(NC(=O)c3ncccn3)c3ncccc3c2)CC1 [QN161, 4-(2-{8-[(Pyrimidine-2-carbonyl)amino]quinolin-6-yloxy}ethyl)piperidine-1-carboxylic acid tert-butyl ester]	–	–	–	–
7.7 ± 1.53	7.22 ± 1.02	6.72 ± 1.02	–	O=C(Nc1nccc2cccnc12)c1cnccn1 [QN655, Pyrazine-2-carboxylic acid [1,7]naphthyridin-8-ylamide]	–	–	–	–

IC50 (MiaPaCa-2; [2]) [µM]	IC50 (BxPC-3; [3]) [µM]	IC50 (Panc-1; [4]) [µM]	IC50 [1] [µM]	Compound	IC50 (MiaPaCa-2; [5]) [µM]	IC50 (BxPC-3; [6]) [µM]	IC50 (Panc-1; [7]) [µM]	IC50 (MiaPaCa-2; MIA PaCa-2, read-out: IC50 in MiaPaCa-2, comparison compounds) [µM]
–	–	–	–	CC(COc1ccccc1)N(CCCl)Cc1ccccc1 (stereo not shown) [pheoxybenzamine, reference compound]	–	–	–	> 30
> 10	> 10	> 10	–	Cc1cnc(C(=O)Nc2ccc3ncccc3c2)cn1 [QN520, 5-Methylpyrazine-2-carboxylic acid quinolin-6-ylamide]	–	–	–	–
–	–	–	–	O=C(Nc1cccc2cccnc12)c1cnc2ccccc2n1 [QN572, Quinoxaline-2-carboxylic acid quinolin-8-ylamide]	> 10	> 10	> 10	–
> 10	> 10	> 10	–	N#C/C(=C\c1cccc(Br)n1)C(=O)Nc1cccc2cccnc12 [QN608]	–	–	–	–
> 10	> 10	> 10	–	O=C(Nc1cc(OCCC2CCNCC2)cc2cccnc12)c1ncccn1 [QN165, Pyrimidine-2-carboxylic acid [6-(2-piperidin-4-yl-ethoxy)quinolin-8-yl]amide]	–	–	–	–
1.8 ± 0.46	9.67 ± 0.58	4.5 ± 0.5	–	Cc1cnc(C(=O)Nc2cc(OCCN(C)C)cc3cccnc23)cn1 [QN148, 5-Methyl-pyrazine-2-carboxylic acid [6-(2-dimethylamino-ethoxy)-quinolin-8-yl]-amide]	–	–	–	–
> 10	> 10	> 10	–	Cc1ccc2cccc(NC(=O)c3ncccn3)c2n1 [QN660, Pyrimidine-2-carboxylic acid (2-methylquinolin-8-yl)amide]	–	–	–	–
> 10	> 10	> 10	–	Cc1cnc(C(=O)Nc2cccc3ccc(C)nc23)cn1 [QN632, 5-Methylpyrazine-2-carboxylic acid (2-methylquinolin-8-yl)amide]	–	–	–	–
3.67 ± 1.15	3.33 ± 0.58	9.5 ± 0.5	–	CC(C)(C)OC(=O)N1CCC(CCOc2cc(NC(=O)c3cnccn3)c3ncccc3c2)CC1 [QN159, 4-(2-{8-[(Pyrazine-2-carbonyl)amino]quinolin-6-yloxy}ethyl)piperidine-1-carboxylic acid tert-butyl ester]	–	–	–	–
> 10	> 10	> 10	–	N#C/C(=C\c1ccc(O)c(O)c1)C(=O)Nc1cccc2cccnc12 [QN609]	–	–	–	–
–	–	–	–	Cc1ccc(C(=O)Nc2cccc3cccnc23)cn1 [QN522, 6-Methyl-N-quinolin-8-yl-nicotinamide]	> 10	> 10	> 10	–
1.7 ± 0.52	5.17 ± 1.61	8.17 ± 1.61	–	O=C(Nc1cc(OCCN2CCOCC2)cc2cccnc12)c1cnccn1 [QN137, Pyrazine-2-carboxylic acid [6-(2-morpholin-4-yl-ethoxy)-quinolin-8-yl]-amide]	–	–	–	–
–	–	–	–	O=C(Nc1cccc2cccnc12)c1ccc(Br)nc1 [QN524, 6-Bromo-N-quinolin-8-yl-nicotinamide]	> 10	> 10	> 10	–
> 10	> 10	> 10	–	CC(C)(C)OC(=O)NCCOc1cc(NC(=O)c2ncccn2)c2ncccc2c1 [QN153, (2-{8-[(Pyrimidine-2-carbonyl)amino]quinolin-6-yloxy}ethyl)carbamic acid tert-butyl ester]	–	–	–	–
1.5 ± 0.5	5.2 ± 0.3	1.77 ± 0.25	–	Cc1cnc(C(=O)Nc2cc(Cl)cc3cccnc23)cn1 [QN793, N-(6-Chloroquinolin-8-yl)-5-methylpyrazine-2-carboxamide]	–	–	–	–
–	–	–	–	O=C(Nc1cccc2cccnc12)c1cccnn1 [QN566, Pyridazine-3-carboxylic acid quinolin-8-ylamide]	8.5 ± 1.03	> 10	> 10	–
> 10	> 10	> 10	–	Cc1cnc(C(=O)Nc2cc(OCCN)cc3cccnc23)cn1 [QN156, 5-Methylpyrazine-2-carboxylic acid [6-(2-aminoethoxy)quinolin-8-yl]amide]	–	–	–	–
6.17 ± 1.04	8.33 ± 1.53	> 10	–	Cc1cnc(C(=O)Nc2cc(OCCC3CCNCC3)cc3cccnc23)cn1 [QN164, 5-Methylpyrazine-2-carboxylic acid [6-(2-piperidin-4-yl-ethoxy)quinolin-8-yl]amide]	–	–	–	–
> 10	> 10	> 10	–	NCCOc1cc(NC(=O)c2ncccn2)c2ncccc2c1 [QN162, Pyrimidine-2-carboxylic acid [6-(2-aminoethoxy)quinolin-8-yl]amide]	–	–	–	–

Compound	IC50 (MiaPaCa-2; [2]) [µM]	IC50 (BxPC-3; [3]) [µM]	IC50 (Panc-1; [4]) [µM]	IC50 [1] [µM]	IC50 (MiaPaCa-2; [5]) [µM]	IC50 (BxPC-3; [6]) [µM]	IC50 (Panc-1; [7]) [µM]	IC50 (MiaPaCa-2; MIA PaCa-2, read-out: IC50 in MiaPaCa-2, comparison compounds) [µM]
O=C(Nc1cccc2cccnc12)c1ncccn1 [QN567, Pyrimidine-2-carboxylic acid quinolin-8-ylamide]	–	–	–	< 1	0.33 ± 0.06	> 10	> 10	–
